The record followed here is patent US7345065B2, “Methods and compositions for alleviating pain” (Allergan, Inc., priority 2002, dated 2008).

For one assay, the target named is T1, rat α-1D (Rattus norvegicus, UniProt P23944).
T1 construct: expressed in transfected cells; host or cells: NIH-3T3
T1 sequence (P23944 1-561): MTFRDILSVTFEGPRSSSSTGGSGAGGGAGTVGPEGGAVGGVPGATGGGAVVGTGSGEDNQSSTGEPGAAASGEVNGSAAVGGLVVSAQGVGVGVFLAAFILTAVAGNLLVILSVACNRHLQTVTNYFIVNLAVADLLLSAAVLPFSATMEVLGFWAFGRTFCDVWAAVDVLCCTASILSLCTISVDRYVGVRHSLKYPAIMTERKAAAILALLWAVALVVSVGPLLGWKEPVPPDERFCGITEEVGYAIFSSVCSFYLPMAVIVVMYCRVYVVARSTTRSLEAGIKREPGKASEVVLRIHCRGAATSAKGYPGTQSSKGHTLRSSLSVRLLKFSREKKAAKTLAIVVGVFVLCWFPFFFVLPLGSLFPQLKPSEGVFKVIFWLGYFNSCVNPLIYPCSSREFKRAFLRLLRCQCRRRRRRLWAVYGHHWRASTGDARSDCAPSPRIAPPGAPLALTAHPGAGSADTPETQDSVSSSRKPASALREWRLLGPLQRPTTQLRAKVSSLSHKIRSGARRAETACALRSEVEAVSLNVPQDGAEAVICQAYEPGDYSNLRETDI
Nature of the assay: RSAT assay, α-1D receptor. It is filed as cell-based. The settings on record: NA = not active (EC50 ≧ 10,000). An excerpt: (§1) Agonist and antagonist activity, including selectivity and specificity, can be characterized using any of a variety of routine assays, including, without limitation, Receptor Selection and Amplification Technology (RSAT) assays (Messier et al., Pharmacol. Toxicol. 76:308-11 (1995); Conklin et al., Nature 363:274-6 (1993)); cyclic AMP assays (Shimizu et al., J. Neurochem. 16:1609-1619 (1969)); and cytosensor microphysiometry assays (Neve et al., J. Biol. Chem. 267:25748-25753 (1992)). Such assays generally are performed using cells that naturally express only a single α-adrenergic receptor subtype, or using transfected cells expressing a single recombinant α-adrenergic receptor subtype. The adrenergic receptor can be a human receptor or homolog thereof having a similar pharmacology. As disclosed herein, RSAT assays were performed using cells transiently transfected with human α-2A (c10 gene); rat α-2B (RNG gene); human α-2C (c4 gene); bovine α-1A; hamster α-1B; and rat α-1D.
(§2) The RSAT assay measures receptor-mediated loss of contact inhibition resulting in selective proliferation of receptor-containing cells in a mixed population of confluent cells. The increase in cell number is assessed with an appropriate detectable marker gene such as β-galactosidase, if desired, in a high throughput or ultra high throughput assay format. Receptors that activate the G protein, Gq, elicit the proliferative response. α-adrenergic receptors, which normally couple to Gi, activate the RSAT response when coexpressed with a hybrid Gq protein containing a Gi receptor recognition domain, designated Gq/i5.
As an example, an RSAT assay can be performed essentially as follows. […] After washing with phosphate-buffered saline, β-galactosidase activity is determined by adding 200 μl of chromogenic substrate (3.5 mM O-nitrophenyl-β-D-galactopyranoside/0.5% NP-40 in phosphate buffered saline), incubating overnight at 30°, and measuring optical density at 420 nm. […] The EC50 and maximal effect (efficacy) of each drug at each receptor is determined.

The next assay deals with T2, human α-2C (c4 gene) (Homo sapiens, UniProt P18825).
T2 construct: expressed in transfected cells; host or cells: NIH-3T3
T2 sequence (P18825 1-462): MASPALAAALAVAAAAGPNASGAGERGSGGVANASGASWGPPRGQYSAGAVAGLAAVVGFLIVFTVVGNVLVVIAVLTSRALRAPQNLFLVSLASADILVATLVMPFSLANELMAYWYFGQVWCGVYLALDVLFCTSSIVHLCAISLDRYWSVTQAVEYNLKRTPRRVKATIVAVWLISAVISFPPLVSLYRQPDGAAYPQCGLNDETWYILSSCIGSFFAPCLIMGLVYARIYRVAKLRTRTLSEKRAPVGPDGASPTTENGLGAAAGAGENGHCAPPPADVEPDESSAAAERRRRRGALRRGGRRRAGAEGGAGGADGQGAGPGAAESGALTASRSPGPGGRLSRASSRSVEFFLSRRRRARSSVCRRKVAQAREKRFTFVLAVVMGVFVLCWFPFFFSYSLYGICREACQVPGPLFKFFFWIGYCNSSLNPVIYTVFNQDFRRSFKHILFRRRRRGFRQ
Briefly: RSAT assay, α-2C receptor. Format: cell-based. The settings on record: for EC50: NA = not active (EC50 ≧ 10,000); for Emax: in brackets under the RSAT activity, printed without % sign, read-out: % efficacy 2C.
Excerpt: as §1, §2
As an example, an RSAT assay can be performed essentially as follows. NIH-3T3 cells are plated at a density of 2×10^6 cells in 15 cm dishes and maintained in Dulbecco's modified Eagle's medium supplemented with 10% calf serum. One day later, cells are cotransfected by calcium phosphate precipitation with mammalian expression plasmids encoding p-SV-β-galactosidase (5-10 μg), receptor (1-2 μg) and G protein (1-2 μg). Carrier DNA, for example 40 μg salmon sperm DNA, also can be included to increase transfection efficiency. Fresh media is added on the following day; one to two days later, cells are harvested and frozen in 50 assay aliquots. Transfected cells are thawed, and 100 μl of cells added to 100 μl aliquots of compound to be tested, with various concentrations assayed in triplicate, for example, in 96-well plates. Incubation continues for 72 to 96 hours at 37°. After washing with phosphate-buffered saline, β-galactosidase activity is determined by adding 200 μl of chromogenic substrate (3.5 mM O-nitrophenyl-β-D-galactopyranoside/0.5% NP-40 in phosphate buffered saline), incubating overnight at 30°, and measuring optical density at 420 nm. The absorbancy is a measure of enzyme activity, which depends on cell number and reflects receptor-mediated cell proliferation. The EC50 and maximal effect (efficacy) of each drug at each receptor is determined.

A further assay concerns the target T3, bovine α-1A (Bos taurus, UniProt P18130).
T3 construct: expressed in transfected cells; host or cells: NIH-3T3
T3 sequence (P18130 1-466): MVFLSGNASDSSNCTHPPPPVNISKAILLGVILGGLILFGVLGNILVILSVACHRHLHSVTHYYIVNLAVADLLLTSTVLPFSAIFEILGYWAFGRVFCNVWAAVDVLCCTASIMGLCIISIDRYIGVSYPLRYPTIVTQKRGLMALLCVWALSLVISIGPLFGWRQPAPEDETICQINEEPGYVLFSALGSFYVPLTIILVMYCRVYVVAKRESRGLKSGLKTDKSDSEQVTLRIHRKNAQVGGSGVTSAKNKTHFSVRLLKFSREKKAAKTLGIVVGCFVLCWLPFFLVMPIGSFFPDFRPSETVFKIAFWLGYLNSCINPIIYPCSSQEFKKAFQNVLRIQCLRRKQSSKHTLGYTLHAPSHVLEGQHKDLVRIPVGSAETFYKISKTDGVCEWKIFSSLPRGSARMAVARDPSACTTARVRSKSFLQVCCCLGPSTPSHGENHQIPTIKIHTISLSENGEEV
Nature of the assay: RSAT assay, α-1A receptor. It is filed as cell-based. The settings on record: NA = not active (EC50 ≧ 10,000).
Excerpt: as §1, with “The adrenergic receptor can be a human receptor or homolog thereof having a similar pharmacology. As disclosed herein, RSAT assays were performed using cells transiently transfected with human α-2A (c10 gene); rat α-2B (RNG gene); human α-2C (c4 gene); bovine α-1A; hamster α-1B; and rat α-1D.” left out
The RSAT assay measures receptor-mediated loss of contact inhibition resulting in selective proliferation of receptor-containing cells in a mixed population of confluent cells. The increase in cell number is assessed with an appropriate detectable marker gene such as β-galactosidase, if desired, in a high throughput or ultra high throughput assay format. […]
As an example, an RSAT assay can be performed essentially as follows. […] After washing with phosphate-buffered saline, β-galactosidase activity is determined by adding 200 μl of chromogenic substrate (3.5 mM O-nitrophenyl-β-D-galactopyranoside/0.5% NP-40 in phosphate buffered saline), incubating overnight at 30°, and measuring optical density at 420 nm. […]

The test system of assay [1] is α-2B heterozygous (−/+) and homozygous (−/−) knockout mice. Briefly: Sulprostone sensitized pain (allodynia), α-2B knockout mice. To be noted: intraperitoneal; heterozygous and homozygous α-2B knockout; clonidine 500 ug/kg, Compound 3 100 ug/kg. It is filed as in vivo, mouse.

For the molecule `S=c1[nH]cc(CC2CC=CC2)[nH]1` [Compound 11], the EC50 was greater than 2000 nM at rat α-1D, 247 nM on human α-2C (c4 gene) and 1710 nM at bovine α-1A. Also, the Emax at human α-2C (c4 gene) turned out to be 0.3%.
For `O=c1[nH]cc(CC2CCc3cc(F)ccc32)[nH]1` (centres unmarked) [Compound 4], the EC50 at rat α-1D is greater than 2000 nM. Further, on human α-2C (c4 gene), the response was half-maximal at 202 nM (EC50) and the Emax is 0.5%.
For the molecule `O=C1c2ccccc2CCC1Cc1c[nH]c(=S)[nH]1` (racemic) [Compound 3], the EC50 at rat α-1D, at human α-2C (c4 gene) and at bovine α-1A was greater than 2000 nM each time. Besides, the “analgesic effect in α-2B knockout mice” value in assay [1] is given as “not analgesic”.
